#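 Protocol summary: plate cells (96-well), add compound at 5 concentrations, incubate 48 h, interpolate endpoints linearly. GI50 marks 50% less growth.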 Activity calls are given as the source filed them. No stated cut-off is given here; in the data, active = GI50 up to about 1.1 µM and inactive = higher.
# Key:
# Experiment in all cases: NCI tumour cell line growth inhibition, 48 h
# LXFL 529 = system: LXFL 529
# HCT-15 = system: HCT-15
# SF-268 = system: SF-268
# SK-MEL-2 = system: SK-MEL-2
# HCT-116 = system: HCT-116
# KM-20L2 = system: KM-20L2
# SK-MEL-28 = system: SK-MEL-28
# M19-MEL = system: M19-MEL
# OVCAR-5 = system: OVCAR-5
# KM12 = system: KM12
# DLD-1 = system: DLD-1
# A498 = system: A498
# TK-10 = system: TK-10
# HOP-92 = system: HOP-92
# UO-31 = system: UO-31
# OVCAR-8 = system: OVCAR-8
# NCI-H522 = system: NCI-H522
# SW-620 = system: SW-620
# COLO 205 = system: COLO 205
# NCI-H460 = system: NCI-H460
# SF-295 = system: SF-295
# 786-0 = system: 786-0
# U-251 = system: U-251
# OVCAR-4 = system: OVCAR-4
# OVCAR-3 = system: OVCAR-3
# HOP-62 = system: HOP-62
# EKVX = system: EKVX
# UACC-62 = system: UACC-62
# Malme-3M = system: Malme-3M
# SF-539 = system: SF-539
# HOP-18 = system: HOP-18
# SR = system: SR
# HCC 2998 = system: HCC 2998
# IGROV-1 = system: IGROV-1
# ACHN = system: ACHN
# DMS-114 = system: DMS-114
# SK-MEL-5 = system: SK-MEL-5
# A549 = system: A549
# RXF 393 = system: RXF 393
# HT-29 = system: HT-29
# M14 = system: M14
# UACC-257 = system: UACC-257
# SNB-19 = system: SNB-19
# NCI-H23 = system: NCI-H23
# SN12C = system: SN12C
# HL-60 = system: HL-60
# CAKI-1 = system: CAKI-1
# SNB-75 = system: SNB-75
# SNB-78 = system: SNB-78
# MOLT-4 = system: MOLT-4
# CCRF-CEM = system: CCRF-CEM
# DMS-273 = system: DMS-273
# K562 = system: K562
# SK-OV-3 = system: SK-OV-3
# RPMI-8226 = system: RPMI-8226
# LOX IMVI = system: LOX IMVI
# NCI-H226 = system: NCI-H226
structure (smiles),measurement,setting,value
Cc1ccc(/C=C(\NC(=O)c2ccccc2)c2nc3ccccc3[nH]2)cc1,GI50,LXFL 529,32.2 µM (inactive)
same,GI50,HCT-15,45.6 µM
same,GI50,SF-268,60.8 µM (inactive)
same,GI50,SK-MEL-2,31.6 µM (inactive)
same,GI50,HCT-116,37.2 µM (inactive)
same,GI50,KM-20L2,47.1 µM (inactive)
same,GI50,SK-MEL-28,71.9 µM (inactive)
same,GI50,M19-MEL,46.5 µM (inactive)
same,GI50,OVCAR-5,> 100 µM (inactive)
same,GI50,KM12,40.6 µM (inactive)
same,GI50,DLD-1,56.8 µM (inactive)
same,GI50,A498,38 µM (inactive)
same,GI50,TK-10,> 100 µM (inactive)
same,GI50,HOP-92,28.3 µM (inactive)
same,GI50,UO-31,48.9 µM (inactive)
same,GI50,OVCAR-8,43.8 µM (inactive)
same,GI50,NCI-H522,42.2 µM (inactive)
same,GI50,SW-620,50.4 µM (inactive)
same,GI50,COLO 205,48.2 µM (inactive)
same,GI50,NCI-H460,37.2 µM (inactive)
same,GI50,SF-295,36.6 µM (inactive)
same,GI50,786-0,39.3 µM (inactive)
same,GI50,U-251,41.2 µM (inactive)
same,GI50,OVCAR-4,70.5 µM (inactive)
same,GI50,OVCAR-3,46.9 µM (inactive)
same,GI50,HOP-62,> 100 µM (inactive)
same,GI50,EKVX,74.5 µM (inactive)
same,GI50,UACC-62,83.6 µM (inactive)
same,GI50,Malme-3M,45.5 µM (inactive)
same,GI50,SF-539,> 100 µM (inactive)
same,GI50,HOP-18,> 100 µM (inactive)
same,GI50,SR,37.4 µM (inactive)
same,GI50,HCC 2998,49.5 µM (inactive)
same,GI50,IGROV-1,> 100 µM (inactive)
same,GI50,ACHN,47.5 µM (inactive)
same,GI50,DMS-114,27.6 µM (inactive)
same,GI50,SK-MEL-5,12.8 µM (inactive)
same,GI50,A549,42.7 µM (inactive)
same,GI50,RXF 393,> 100 µM (inactive)
same,GI50,HT-29,37.5 µM (inactive)
same,GI50,M14,50 µM (inactive)
same,GI50,UACC-257,35.3 µM (inactive)
same,GI50,SNB-19,39.4 µM (inactive)
same,GI50,NCI-H23,59.6 µM (inactive)
same,GI50,SN12C,61 µM (inactive)
same,GI50,HL-60,23.9 µM (inactive)
COC(=O)c1cc2c3c(ccc2[nH]1)N(C(=O)c1cc2c4c(ccc2[nH]1)N(C(=O)c1cc2c5c(ccc2[nH]1)N(C(N)=O)CC5)CC4)CC3,GI50,LXFL 529,2.07 µM (inactive)
same,GI50,HCT-15,12 µM
same,GI50,SF-268,2.17 µM (inactive)
same,GI50,CAKI-1,2 µM (inactive)
same,GI50,SNB-75,2.11 µM (inactive)
same,GI50,SNB-78,> 100 µM (inactive)
same,GI50,SK-MEL-2,3.18 µM (inactive)
same,GI50,HCT-116,2.24 µM (inactive)
same,GI50,KM-20L2,> 63.8 µM (inactive)
same,GI50,OVCAR-5,> 52.7 µM (inactive)
same,GI50,MOLT-4,> 23 µM (inactive)
same,GI50,KM12,6.82 µM (inactive)
same,GI50,CCRF-CEM,4.58 µM (inactive)
same,GI50,DLD-1,> 21.1 µM (inactive)
same,GI50,DMS-273,4.06 µM (inactive)
same,GI50,A498,1.29 µM (inactive)
same,GI50,TK-10,13.1 µM (inactive)
same,GI50,HOP-92,2.03 µM (inactive)
same,GI50,UO-31,3.94 µM (inactive)
same,GI50,K562,2.44 µM (inactive)
same,GI50,SK-OV-3,2.1 µM (inactive)
same,GI50,NCI-H522,1.61 µM (inactive)
same,GI50,SW-620,7.85 µM (inactive)
same,GI50,COLO 205,2.72 µM (inactive)
same,GI50,NCI-H460,3.24 µM (inactive)
same,GI50,SF-295,3.12 µM (inactive)
same,GI50,RPMI-8226,7.89 µM (inactive)
same,GI50,786-0,3.05 µM (inactive)
same,GI50,U-251,2.17 µM (inactive)
same,GI50,OVCAR-4,3.55 µM (inactive)
same,GI50,OVCAR-3,3.9 µM (inactive)
same,GI50,HOP-62,2.29 µM (inactive)
same,GI50,EKVX,2.17 µM (inactive)
same,GI50,UACC-62,0.845 µM (active)
same,GI50,Malme-3M,1.24 µM (inactive)
same,GI50,SF-539,3.6 µM (inactive)
same,GI50,HOP-18,> 100 µM (inactive)
same,GI50,SR,5.58 µM (inactive)
same,GI50,HCC 2998,5.45 µM (inactive)
same,GI50,IGROV-1,3.37 µM (inactive)
same,GI50,ACHN,3.13 µM (inactive)
same,GI50,DMS-114,3.7 µM (inactive)
same,GI50,LOX IMVI,1.88 µM (inactive)
same,GI50,SK-MEL-5,2.07 µM (inactive)
same,GI50,A549,3 µM (inactive)
same,GI50,RXF 393,2.17 µM (inactive)
same,GI50,HT-29,6.58 µM (inactive)
same,GI50,M14,1.87 µM (inactive)
same,GI50,UACC-257,> 22.6 µM (inactive)
same,GI50,SNB-19,2.61 µM (inactive)
same,GI50,NCI-H226,1.71 µM (inactive)
same,GI50,NCI-H23,2.94 µM (inactive)
same,GI50,SN12C,2.97 µM (inactive)
same,GI50,HL-60,6.62 µM (inactive)
